Laboratory results as given in patent publication US12304909B2, “Compounds and their use in therapy” (IMPERIAL COLLEGE INNOVATIONS LIMITED, priority 2018, dated 2025).

How the values were obtained:
[1] = Human liver microsomes half life; type: in vitro ADME; details: pH 7.4, read-out: Human liver microsomes t ½
Description: Example Compound 1 was tested for metabolic stability in an assay using human liver microsomes. Comparative Examples 2, 3, 4, 5 and 6 were also tested in the same assay. Compounds having good metabolic stability in the assay are expected to be especially useful as agents for preventing and/or treating cancer, by having a long half-life in human patients
Frozen human liver microsomes obtained from Corning, USA (cat #452117) were thawed and diluted with 100 mM of pH 7.4 phosphate buffer to give a 1 mg/ml solution. An NADPH regeneration system (NRS) was prepared as a solution containing 13 mM NADP, 33 mM glucose-6-phosphate, 33 mM MgCl2 and 4U/mL glucose-6-phosphate dehydrogenase in 100 mM of pH7.4 phosphate buffer. The test compound (4 mM) in DMSO was diluted with acetonitrile to provide a 100 μM sub-stock then further diluted with 100 mM of pH7.4 phosphate buffer to provide a 2 μM working solution. The liver microsome solution and NRS were incubated at 37° C. before use. To each well of the test plate was dispensed 60 μL of buffer, 50 μL of test compound solution and 10 μL of NRS. A reaction was initiated by addition of 40 μL of liver microsome solution. Wells were incubated for an appropriate time (0, 5, 10, 20, 30 and 60 min) then quenched with 300 μL of acetonitrile containing reference standards atenolol, propranolol, diclofenac, verapamil). All plates were centrifuged at 3500 rpm for 20 min at 15° C. to pellet the debris. 110 μL supernatant was diluted 110 μL water and quantitated using LC-MS/MS.
The results were used to calculate the % Remaining of the test compound at time point t=100×˜[(AUC at time point t)/(AUC at T=0)]. A linear regression curve was fitted to a plot of natural logarithm (In) of AUC against time. The T-half (min)=0.693/slope.

human NMT1 (HsNMT1) = biological target: T1, human NMT1 (HsNMT1) (Homo sapiens, UniProt P30419); assay: HsNMT1 IC50, fluorescence-based assay detecting CoA with CPM; type: biochemical
T1 sequence (P30419 1-496): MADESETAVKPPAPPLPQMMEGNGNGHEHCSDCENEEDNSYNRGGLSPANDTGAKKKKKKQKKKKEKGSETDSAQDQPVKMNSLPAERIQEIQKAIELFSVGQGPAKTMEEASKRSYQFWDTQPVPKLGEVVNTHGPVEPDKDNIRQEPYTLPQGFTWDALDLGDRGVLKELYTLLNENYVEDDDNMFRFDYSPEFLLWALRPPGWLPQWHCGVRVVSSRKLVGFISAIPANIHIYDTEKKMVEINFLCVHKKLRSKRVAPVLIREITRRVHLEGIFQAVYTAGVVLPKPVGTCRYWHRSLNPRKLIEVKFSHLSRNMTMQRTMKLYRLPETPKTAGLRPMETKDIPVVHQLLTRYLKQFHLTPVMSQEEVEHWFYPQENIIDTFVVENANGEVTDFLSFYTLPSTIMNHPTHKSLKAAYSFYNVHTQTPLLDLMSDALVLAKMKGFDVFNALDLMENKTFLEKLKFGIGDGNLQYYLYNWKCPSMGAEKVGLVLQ
Description: The IC50 values for human NMT1 (HsNMT1) of four Example compounds of the invention described above (Examples 1-4) and six comparative examples (Comparative Examples 1, 2, 3, 4, 5 and 6) were measured using a sensitive fluorescence-based assay based on detection of CoA by 7-diethylamino-3-(4-maleimido-phenyl)-4-methylcoumarin, as described in Goncalves, V., et al., Analytical Biochemistry, 2012, 421, 342-344 and Goncalves, V., et al., J. Med. Chem, 2012, 55, 3578.

Mouse half life in vivo = details: plasma; mouse oral half-life; male CD-1 mice, 10 mg/kg po; read-out: Rat or mouse t ½ (mouse) (converted)
Description: Example Compound 1, and Comparative Examples 2 and 3 were tested for metabolic stability in male Sprague-Dawley rats. Comparative Example 5 was tested for metabolic stability in male CD-1 mice. Compounds having good metabolic stability in rats or mice are expected to be especially useful as agents for preventing and/or treating cancer, by having a long half-life in human patients.
Same as rat protocol except that CD-1 mice were dosed at 5 mg/kg iv and 10 mg/kg po.

MRC5 cells = assay: Metabolic activity assay (MTS assay), MRC5; type: cell-based, human; details: Homo sapiens, MRC5, 72 h
Description: Example NMT inhibitors of the present invention were tested for activity in an in vitro metabolic activity assay using the human cell line MRC5. Comparative Examples 1, 2, 3, 4, 5 and 6 were also tested in the same metabolic activity assay. Compounds having activity in inhibiting metabolic activity in the assay are expected to be useful as agents for preventing and/or treating cancer, by virtue of being inhibitors of human NMT1 and/or NMT2.
MRC5 cells (obtained from Dr David Mann's group, Imperial College; cell type: fibroblasts cells which derive from normal lung tissue) were grown in DMEM media (supplemented with 10% FBS) and were seeded in a 96-well plate, 24 h prior to treatment. Cell suspensions were prepared by adjusting the cell density to the appropriate concentration (as stated in the Table 1 below) and 50 μL of the cell suspension was transferred to wells B-G in columns 2-11 of a 96-well plate.
100 μL of growth media (DMEM media) containing 0.2% DMSO was added to wells B-G in columns 2 and 11 as positive controls, and 100 μl of growth media containing Puromycin (3 μg/mL; final concentration in the plate 2 μg/mL) was added to wells B-G in column 3 as a negative control. Seven concentrations of NMT inhibitor stock solution were prepared for each Example (Example 1 and 2) and each Comparative Example (Comparative Examples 1, 2, 3, 4, 5 and 6) tested (same final percentage of DMSO, dilution factor=3 starting from 15 μM or 150 μM). 100 μL of inhibitor stock solution was added to wells B-G in columns 4-10 of a 96-well plate (final concentration of Example compound or Comparative Example compound in the plate starting from 10 μM or 100 μM; total volume in each well was 150 μL). The plate was incubated at 37° C. with 5% CO2 level.
After 72 h, 20 μL MTS reagent (Promega, prepared according to the supplier protocol) was added to each well of the 96-well plate. The plate was incubated at 37° C. for 2 h and the absorbance per well was measured at 490 nm with an EnVision plate reader. The average absorbance value of the negative control (Puromycin-treated cells) was subtracted from each value and the metabolic activity was calculated as a percentage relative to the positive control (DMSO-treated cells). EC50 values were calculated using GraphPad.

half-life at 0.625 µM [1]: 7 min
IC50 (human NMT1 (HsNMT1)): 0.013 µM
half-life (Mouse half life in vivo): 42 min
SMILES: Cc1nn(C)c(C)c1CCOc1cc(F)ccc1-c1ccc2c(c1)c(CN(C)C)nn2C [Comparative Example 5, 1-(5-(4-fluoro-2-(2-(1,3,5-trimethyl-1H-pyrazol-4-yl)ethoxy)phenyl)-1-methyl-1H-indazol-3-yl)-N,N-dimethylmethanamine]
EC50 (MRC5 cells): 27 µM
